These results are taken from patent publication US9511120B2, “Use of the angiotensin-(1-9) peptide or derivatives thereof, use of vectors overexpressing the ACE2 enzyme that produces angiotensin-(1-9) for preparing medicaments useful for preventing, reverting, inhibiting and/or reducing hypertension and/or inducing vasodilation” (PONTIFICA UNIVERSIDAD CATÓLICA DE CHILE, priority 2012, dated 2016).

Where no end group is shown, it is not given here.

The assay has as its system rat mesenteric arteries. The assay is described as follows: Contractility studies in perfused, pressurized mesenteric arteries. To be noted: arteries with intact endothelium as compared to arteries without endothelium. How it is done: The change in diameter of rat resistance (mesenteric) arteries was determined, they were then perfused and pressurized under physiological conditions, in response to different substances, according to a methodology previously described (Gonzalez et al. Hypertension 45:853-9, 2005). Briefly, male rats (Sprague Dawley, 150-200 g) were euthanized for dissection of mesenteric vascular territory, avoiding direct manipulation of arterial or venous tissue. Mesenteric small arteries (200-300 micrometers) were isolated, surgically eliminating adventitial tissue under a zoom stereo microscope (Olympus SZ61). The arteries were perfused intraluminally into a thermoregulated bath at controlled pressure and flow, with perfusion solution (modified Krebs, KRB) of the following composition, in mmol/L: NaCl, 130; CaCl2, 2.5; NaHCO3, 25; MgSO4, 1.2; NaH2PO4, 1.2; KCl, 4.7; glucose, 5.5, pH 7.4. Before use, KRB was gassed with a mixture of 95% O2 and 5% CO2. For perfusion, the artery was cannulated with a glass micropipette (outer diameter 164μ), secured with 5-0 silk suture. The arteries were perfused with 10-20 μL/min KRB, so as to achieve transmural pressure of 60 mmHg. After a rest period of 20 minutes, each artery was incubated in the presence of a vasoconstrictor (100 μM phenylephrine) for two minutes and an endothelial NO production agonist (1 μM acetylcholine). […]

Regarding DRVYIHPFH, the “diameter of resistance arteries” value is “increased in a dose-dependent manner”.
